Results taken from PMC5442318, “Hundreds of dual-stage antimalarial molecules discovered by a functional gametocyte screen” (Nature Communications, 2017).
pIC50: −log10 of the molar value. Like-named read-outs stand apart in the source and are kept apart here.

How the values were obtained:
[1] = tested on: P. falciparum asexual blood stages; conditions: read-out: Pf Asexual blood stages XC50, cited from earlier work
[2] = tested on: P. falciparum stages IV–V gametocytes; assay: Gametocytocidal ATP-depletion assay (gametocyte ATP bioluminescence); assay type: cell-based, Plasmodium falciparum
Outline: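 Read-out is luciferase luminescence of parasite ATP (BacTiter-Glo), standing in for viability. Double-purified mature stage IV–V gametocytes, 12,500 per well, were exposed 48 h at 37 °C in low-O2 gas; screening concentration 2 μM.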

[3] = tested on: P. falciparum stage V female gametocytes; assay: P. falciparum female gametocyte activation assay (Pf FGAA), 24 h or 48 h preincubation, Pfs25 expression readout; assay type: cell-based, Plasmodium falciparum NF54; conditions: mean, read-out: Gametocytes mean Pf FGAA IC50
Outline: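 Female activation, triggered by xanthurenic acid and cooling, was scored by imaging Cy3-labelled anti-Pfs25 female gametes after 24 h at 26 °C. Beforehand, purified NF54 stage V gametocytes had been incubated with compound for either 24 h or 48 h (37 °C, 3% O2). Values are pIC50 from full-curve regression.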

[4] = tested on: HepG2 cells; assay: HepG2 cytotoxicity assay; assay type: cell-based
Outline: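 Luminescent read-out (CellTiter-Glo) taken 10 min after reagent addition at RT; plates and reagent pre-equilibrated 30 min at RT.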

[5] = TCAMS asexual blood stage data, ref 1 (Gamo, F. J. et al., Nature 465, 305-310, 2010)
[6] = P. falciparum female gametocytes
[7] = TCAMS data, ref 1 (Gamo et al., 2010)
[8] = P. falciparum female gametocyte activation assay

Cl.c1ccc2c(NCCCCCCCCCNc3c4ccccc4nc4ccccc34)c3ccccc3nc2c1 [TCMDC-124286]
pIC50 [1, 5]: 6.52
Gametocytes mean ATP inhibition at 2µM [2]: 51.90%
pIC50 [3, 6]: 5.74
HepG2 cells mean TOX50 ([4]; HepG2 cells; mean): 4.90 µM

c1ccc(CNc2cc(-c3ccccn3)nc(-c3ccccn3)n2)cc1 [TCMDC-125421]
pIC50 [1, 5]: 6.52
Gametocytes mean ATP inhibition at 2µM [2]: 76.15%
pIC50 [3, 6]: 6.49
HepG2 cells mean TOX50 ([4]; HepG2 cells; mean): 13.04 µM

CNCCNCc1ccc(-c2ccc(-c3nc4cc(C(F)(F)F)ccc4[nH]3)s2)cc1.O=C(O)C(F)(F)F [TCMDC-132838]
pIC50 [1, 5]: 6.22
Gametocytes mean ATP inhibition at 2µM [2]: -8.87%
pIC50 [3, 6]: 5.89
HepG2 cells mean TOX50 ([4]; HepG2 cells; mean): 6.10 µM

COc1cc2nc(N3CCC(CNC(=O)c4ccc(-c5ccc(C(F)(F)F)cc5)cc4)CC3)nc(N)c2cc1OC [TCMDC-138716]
pIC50 [1, 7]: 6.89
Gametocytes mean ATP inhibition at 2µM (%) [2]: 21.96%
pIC50 [3]: 6.07
HepG2 cells mean TOX50 ([4]; mean): 4.92 µM

[O-][s+]1c(Cl)c(-c2ccc(Cl)cc2)c2ccc(Cl)cc21 (stereo not drawn) [TCMDC-124011]
pIC50 [1, 5]: 6.00
Gametocytes mean ATP inhibition at 2µM [2]: 87.64%
pIC50 [3, 6]: 7.44
HepG2 cells mean TOX50 ([4]; HepG2 cells; mean): 11.35 µM

COc1ccc(CNC2Cc3ccccc3C2)cc1-c1ccc(S(=O)(=O)NCCN2CCCC2)c(F)c1.O=C(O)C(F)(F)F [TCMDC-132266]
pIC50 [1, 5]: 6.14
Gametocytes mean ATP inhibition at 2µM [2]: 7.12%
pIC50 [3, 6]: 5.71
HepG2 cells mean TOX50 ([4]; HepG2 cells; mean): 6.03 µM

Cc1n[nH]c2ccc(-c3ccc4nccc(N5CCC(N)CC5)c4c3)cc12.Cl [TCMDC-134315]
pIC50 [1, 5]: 6.23
Gametocytes mean ATP inhibition at 2µM [2]: 71.38%
pIC50 [3, 6]: 5.61
HepG2 cells mean TOX50 ([4]; HepG2 cells; mean): 6.88 µM

COc1c(CNCCCCCCNCc2c(OC)c(OC)c3ccccc3c2OC)c(OC)c2ccccc2c1OC.CS(=O)(=O)O [TCMDC-137837]
pIC50 [1, 7]: 6.02
Gametocytes mean ATP inhibition at 2µM (%) [2]: 18.67%
pIC50 [3]: 5.43
HepG2 cells mean TOX50 ([4]; mean): 4.42 µM

O=c1c(NCCCN(Cc2ccc(F)cc2)c2ccccn2)c(NCc2cccnc2)c1=O [TCMDC-142311]
pIC50 [1, 5]: 7.22
Gametocytes mean ATP inhibition at 2µM [2]: 58.25%
pIC50 [3, 8]: 6.44
HepG2 cells mean TOX50 ([4]; mean; HepG2 cells): >100 µM

COc1cc2nc(N3CCC(CNC(=O)c4ccc(-c5ccc(-c6noc(C)n6)cc5C)cc4)CC3)nc(N)c2cc1OC [TCMDC-138155]
pIC50 [1, 7]: 6.66
Gametocytes mean ATP inhibition at 2µM (%) [2]: 5.13%
pIC50 [3]: 5.77
HepG2 cells mean TOX50 ([4]; mean): 7.62 µM

COc1ccc(CNC2CCN(C)CC2)cc1-c1ccc(S(=O)(=O)NCc2ccccc2)s1.O=C(O)C(F)(F)F [TCMDC-132253]
pIC50 [1, 5]: 6.64
Gametocytes mean ATP inhibition at 2µM [2]: -2.80%
pIC50 [3, 6]: 5.76
HepG2 cells mean TOX50 ([4]; HepG2 cells; mean): 5.50 µM

CC(Cc1ccc(NC(=O)c2ccc(CNCCCCc3ccccc3)cc2)cc1)NCCc1cccc(Cl)c1.Cl (stereo not drawn) [TCMDC-139866]
pIC50 [1, 7]: 6.48
Gametocytes mean ATP inhibition at 2µM (%) [2]: 18.31%
pIC50 [3]: 5.95
HepG2 cells mean TOX50 ([4]; mean): 1.97 µM

c1cc(Nc2nc(-c3ccc(-c4csc(Nc5ccncc5)n4)cc3)cs2)ccn1 [TCMDC-139725]
pIC50 [1, 7]: 6.92
Gametocytes mean ATP inhibition at 2µM (%) [2]: 93.92%
pIC50 [3]: 7.52
HepG2 cells mean TOX50 ([4]; mean): 2.26 µM

CN1CCN(CCCNCc2cccc(Nc3nccc(Nc4ccc(Oc5ccccc5)cc4)n3)c2)CC1 [TCMDC-138616]
pIC50 [1, 7]: 6.12
Gametocytes mean ATP inhibition at 2µM (%) [2]: 13.07%
pIC50 [3]: 6.01
HepG2 cells mean TOX50 ([4]; mean): 4.68 µM

Br.CC(C)(Cc1ccc(Cl)cc1)NCCCCCCNCCc1ccc(O)c(O)c1 [TCMDC-131277]
pIC50 [1, 5]: 5.92
Gametocytes mean ATP inhibition at 2µM [2]: 53.83%
pIC50 [3, 6]: 5.02
HepG2 cells mean TOX50 ([4]; HepG2 cells; mean): 10.97 µM

CCN1CCN(c2ccc(Nc3c4ccccc4nc4ccccc34)cc2)CC1 [TCMDC-124255]
pIC50 [1, 5]: 6.14
Gametocytes mean ATP inhibition at 2µM [2]: 12.43%
pIC50 [3, 6]: 6.00
HepG2 cells mean TOX50 ([4]; HepG2 cells; mean): 4.57 µM

COc1cc(CNCCCCCCNCc2cc(OC)c3ccccc3c2OC)c(OC)c2ccccc12.CS(=O)(=O)O [TCMDC-137502]
pIC50 [1, 7]: 6.15
Gametocytes mean ATP inhibition at 2µM (%) [2]: 1.18%
pIC50 [3]: 5.78
HepG2 cells mean TOX50 ([4]; mean): 3.67 µM

COc1ccc2nc(N=C3NC4(c5ccccc5)NC(=Nc5nc6ccc(OC)cc6[nH]5)NC4(c4ccccc4)N3)[nH]c2c1.O=C(O)C(F)(F)F (stereo not drawn) [TCMDC-139632]
pIC50 [1, 7]: 6.70
Gametocytes mean ATP inhibition at 2µM (%) [2]: 67.82%
pIC50 [3]: 6.92
HepG2 cells mean TOX50 ([4]; mean): 62.72 µM

O=C(/C=C/c1ccc(Cl)c(Cl)c1)N1CCC(CN2CCC(c3c[nH]c4ccncc34)CC2)CC1 [TCMDC-140074]
pIC50 [1, 7]: 6.14
Gametocytes mean ATP inhibition at 2µM (%) [2]: -2.94%
pIC50 [3]: 6.06
HepG2 cells mean TOX50 ([4]; mean): 5.32 µM

Cc1c(Cn2ncc(N3CCC(N)CC3)c(Cl)c2=O)cccc1NC(=O)Nc1ccc(-c2ccccc2)cc1.O=C(O)C(F)(F)F [TCMDC-141931]
pIC50 [1, 5]: 6.15
Gametocytes mean ATP inhibition at 2µM [2]: 22.47%
pIC50 [3, 8]: 5.96
HepG2 cells mean TOX50 ([4]; mean; HepG2 cells): 22.90 µM

Br.CCCCc1ccc(CCNCCCCCCNCCc2ccc(O)c(O)c2)cc1 [TCMDC-131281]
pIC50 [1, 5]: 5.97
Gametocytes mean ATP inhibition at 2µM [2]: 60.07%
pIC50 [3, 6]: 5.67
HepG2 cells mean TOX50 ([4]; HepG2 cells; mean): 4.63 µM

COc1cc(/C=C(\C2=NC(=O)CS2)c2nc3cccnc3n2C)ccc1O [TCMDC-135917]
pIC50 [1, 7]: 6.00
Gametocytes mean ATP inhibition at 2µM (%) [2]: 48.81%
pIC50 [3]: 6.14
HepG2 cells mean TOX50 ([4]; mean): 21.14 µM

CC(C)(C)c1ccc(-c2cc3c(ccc4nc(N)nc(N)c43)[nH]2)cc1 [TCMDC-137977]
pIC50 [1, 7]: 6.96
Gametocytes mean ATP inhibition at 2µM (%) [2]: 65.65%
pIC50 [3]: 6.11
HepG2 cells mean TOX50 ([4]; mean): 1.86 µM

COc1cccc(-c2csc(C(=O)NCC3CCN(Cc4ccc(C(C)(C)C)cc4)C3)c2)c1.O=C(O)C(F)(F)F (stereo not drawn) [TCMDC-134447]
pIC50 [1, 5]: 5.93
Gametocytes mean ATP inhibition at 2µM [2]: -7.16%
pIC50 [3, 6]: 6.19
HepG2 cells mean TOX50 ([4]; HepG2 cells; mean): 5.78 µM

O=C(NC1CCN(CCN2CCC(c3c[nH]c4ccccc34)CC2)CC1)c1ccc(-c2ccc(C(F)(F)F)cc2)cc1 [TCMDC-138845]
pIC50 [1, 7]: 6.68
Gametocytes mean ATP inhibition at 2µM (%) [2]: -6.33%
pIC50 [3]: 5.74
HepG2 cells mean TOX50 ([4]; mean): 4.68 µM

CC(=O)c1ccc2nc[nH]c(=O)c2c1 [TCMDC-138172]
pIC50 [1, 7]: 6.14
Gametocytes mean ATP inhibition at 2µM (%) [2]: 67.05%
pIC50 [3]: 6.01
HepG2 cells mean TOX50 ([4]; mean): 6.24 µM

O=C(Nc1cccc(-c2cccc(-c3nc4cc(C(F)(F)F)ccc4[nH]3)c2)c1)Nc1ccc(F)c(F)c1F [TCMDC-133229]
pIC50 [1, 5]: 6.92
Gametocytes mean ATP inhibition at 2µM [2]: -42.33%
pIC50 [3, 6]: 5.85
HepG2 cells mean TOX50 ([4]; HepG2 cells; mean): 3.43 µM

O=C(O)C(F)(F)F.O=S(=O)(NCCN1CCCC1)c1ccc(-c2cccc(CNC3Cc4ccccc4C3)c2)cc1 [TCMDC-132215]
pIC50 [1, 5]: 6.21
Gametocytes mean ATP inhibition at 2µM [2]: 9.62%
pIC50 [3, 6]: 5.60
HepG2 cells mean TOX50 ([4]; HepG2 cells; mean): 6.03 µM

CCCC(N)C(=O)NC1CCN(c2c(F)c(N)c3c(=O)c(C(=O)O)cn4c3c2Oc2ccccc2-4)C1.Cl (stereo not drawn) [TCMDC-125701]
pIC50 [1, 5]: 6.44
Gametocytes mean ATP inhibition at 2µM [2]: 0.82%
pIC50 [3, 6]: 5.94
HepG2 cells mean TOX50 ([4]; HepG2 cells; mean): 1.61 µM

Cc1cc(I)ccc1Nc1nc2nonc2nc1Nc1ccc(I)cc1C [TCMDC-124083]
pIC50 [1, 5]: 6.29
Gametocytes mean ATP inhibition at 2µM [2]: 6.94%
pIC50 [3, 6]: 5.97
HepG2 cells mean TOX50 ([4]; HepG2 cells; mean): 0.93 µM
